Values of other authors, collected in patent publication US20070265329A1, “Methods for the prevention of acute and delayed chemotherapy-induced nausea and vomiting (CINV)” (priority 2006, published 2007).
Like-named read-outs stand apart in the source and are kept apart here.

Tests used:
[1] = test system: delayed onset CINV; conditions: administered twice a day
[2] = test system: patients (acute phase CINV); conditions: over 24 hours (acute phase); study of 233 patients
[3] = test system: patients following moderately emetogenic chemotherapy
[4] = or 7 days

peak plasma concentrate (oral, 1 mg bid over seven days) [ng/mL]	still detectable in the systemic circulation at [4] [h]	SMILES	clearance in cancer patients (compared with normal volunteers)	treatment of delayed onset CINV [1]	complete response (no vomiting, no moderate or severe nausea, no rescue medication) [2] [%]	patients who did not vomit or need additional medication for nausea ([3]; days 2-5 following moderately emetogenic chemotherapy) [%]	patients who did not vomit or need additional medication for nausea ([3]; first day following moderately emetogenic chemotherapy) [%]	most common side effects ([3]; patients taking Aloxi)
6.0	–	CN1C2CCCC1CC(NC(=O)c1nn(C)c3ccccc13)C2 (centres unmarked) [Kytril®, granisetron]	approximately half that of normal volunteers	effective	81	–	–	–
–	≥ 168	O=C1c2cccc3c2[C@H](CCC3)CN1[C@@H]1CN2CCC1CC2 [Aloxi®, palonosetron]	–	–	–	64	72	headache and constipation
